Where a name gives a salt, the structure may show the parent alone.
Test system: Bone marrow precursors
Assay: Development of MDSC from bone marrow precursors cultured in GM-CSF and G-CSF with DOR antagonists
Type: cell-based, mice
Conditions: bone marrow precursors cultured 96 hours in GM-CSF and G-CSF (20 ng/ml each), increasing concentrations of antagonist
Description: Next the effect of DOR antagonist on M-MDSC was investigated. Bone marrow precursors were isolated and cultured for 96 hours in GM-CSF and G-CSF (20 ng/ml each) in the presence of increasing concentrations of the DOR antagonists Naltriben mesylate (NTB) or Naltrindole hydrochloride (NTD). Then, we evaluated cell viability by flow cytometry (using DAPI). […] Additionally, the number of M-MDSC (CD11b^+Ly6G^negLy6C^high) and PMN-MDSC (CD11b^+Ly6G^+Ly6C^low) was calculated.
The conjugated antibodies and probes used for flow cytometry are listed in the Key Resources Table. For surface staining, cells were labelled with the appropriate antibodies in the presence of Fc blocker. For intracellular staining, surface-labeled cells were fixed with Cytofix/Cytoperm™ Solution (BD Biosciences), washed in Perm/Wash™ 1×solution, and labelled with intracellular antibodies. Cells were then washed in Perm/Wash™ 1×and PBS. Live vs. dead cell discrimination was performed prior to antibody labeling by Zombie Fixable Viability dye (Biolegend). Ex vivo intracellular staining for IL-12 and TNFα was performed on isolated cells after stimulation for 6 hours with LPS (1 μg/ml, Sigma Aldrich) in the presence of Golgi stop (0.8 μl/ml, BD Biosciences). For IFNγ staining, cells were incubated for 5 hours with phorbol myristate acetate (PMA, 750 ng/mL, Sigma Aldrich) and ionomycin (50 μg/mL, Sigma-Aldrich) in the presence and Golgi stop (0.8 μl/ml). For ER-tracker and Mitotracker staining, cells were probed with 100 nM of ER tracker green or 200 nM of Mitotracker green (Invitrogen) and then stained for surface markers. For Mitochondrial membrane potential, cells were stained with JC-1 flow cytometry assay kit (Cayman chemicals) followed by surface markers staining. ROS were detected by DCFDA (10 μM) or Dihydroethidium (DHE, 10 μM). Data acquisition was performed in a CytoFLEX II (Beckman Coulter) or LSRII (BD Biosciences). All analysis was performed using FlowJo version 11 software.

## Oc1ccc2c3c1O[C@H]1c4[nH]c5ccccc5c4C[C@@]4(O)[C@@H](C2)N(CC2CC2)CC[C@]314 [NTD, Naltrindole hydrochloride]
  absolute number of generated MDSC (CD11b+Gr1+): steady decline of MDSC as concentrations increased
  cell viability by flow cytometry (using DAPI): strong correlation increasing concentration of either NTD or NTB and cell death
  number of M-MDSC (CD11b+Ly6GnegLy6Chigh): the more significant losses were observed in the M-MDSC subset
  number of PMN-MDSC (CD11b+Ly6G+Ly6Clow): declined in number as the concentration of NTD or NTB increased

## Naltriben mesylate [NTB]
  absolute number of generated MDSC (CD11b+Gr1+): steady decline of MDSC as concentrations increased
  cell viability by flow cytometry (using DAPI): strong correlation increasing concentration of either NTD or NTB and cell death
  number of M-MDSC (CD11b+Ly6GnegLy6Chigh): the more significant losses were observed in the M-MDSC subset
  number of PMN-MDSC (CD11b+Ly6G+Ly6Clow): declined in number as the concentration of NTD or NTB increased
